Reference: patent publication US4999424A, “GAR transformylase inhibitor” (The Pennsylvania State University, priority 1988, dated 1991)
Like-named read-outs stand apart in the source and are kept apart here.

Legend:
B-16 melanoma = conditions: in vivo and in vitro; cited from earlier work
HL-60 = conditions: in vivo and in vitro; cited from earlier work
L1210 leukemia = conditions: in vivo and in vitro; cited from earlier work
solid tumors = conditions: variety of solid tumors in mice; cited from earlier work
GAR TFase = conditions: indirectly shown, solid tumors in mice; cited from earlier work
6C3HED lymphosarcoma = conditions: in vivo and in vitro; cited from earlier work
X-5563 = conditions: in vivo and in vitro; cited from earlier work
P388 leukemia = conditions: in vivo and in vitro; cited from earlier work
[1] = system: intracellular pools of ATP and GTP; conditions: tested against solid tumors in mice; cited from earlier work
E. coli GAR TFase [2] = biological target: T1, E. coli GAR TFase (Escherichia coli, UniProt P08179); test: E. coli GAR TFase inhibition/activity assay (5,8-dideazafolate absorbance at 295 nm); assay type: biochemical
T1 construct: made in house; host or cells: E. coli TX393 with multicopy plasmid pJS85, or E. coli TX635 with lambda pL plasmid pJS119 or pJS167
T1 sequence (P08179 1-212): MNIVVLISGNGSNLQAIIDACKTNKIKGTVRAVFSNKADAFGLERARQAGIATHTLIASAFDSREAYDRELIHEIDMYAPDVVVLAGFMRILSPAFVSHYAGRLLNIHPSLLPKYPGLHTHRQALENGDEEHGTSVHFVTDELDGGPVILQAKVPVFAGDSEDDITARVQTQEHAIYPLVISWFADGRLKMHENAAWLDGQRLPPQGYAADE
Experimental: (§1) All assays were carried out by following the increase of 5,8-dideazafolate absorbence at 295 nm in buffered medium at 26° C. To initiate the reaction, enzyme (1 nM final concentration) was added to a mixture of saturating substrates and variable amounts of inhibitor. A characteristic family of curves was obtained, showing slow, tight-binding inhibition. See, Morrison, Trends Biochem. Sc., 7, 102 (1982) and Morrison, et al., Adv. Enzymology, Relat. Areas Mol. Biol., 57, 201-301 (1987).
(§2) In analyzing the biological activity of the compounds of the present invention, GAR TFase from E. coli was used. This enzyme behaves like the mammalian and avian enzyme with respect to substrate specificity, yet is a simple and effective system having only one biological activity. That is, unlike the avian trifunctional GAR TFase, the E. coli species has a sole function. This follows from the genetic evidence of Smith and Daum, J. Biol. Chem., 262, 10565-10569 (1987) as w®11 as the work of Schrimsher et al., Biochemistry, 25, 4366-4371 (1986) who have shown that […] from E. coli is a monofunctional protein, whereas, in chicken it belongs to a trifunctional protein containing, the activates: GAR SYNthase, GAR TFase, and AIR SYNthase.
The E. coli GAR TFase binding constants for the compounds of the present invention and other folate analogs are shown in Table I below:
Table II illustrates the specificity of beta-TGDDF for GAR TFase in comparison with other reduced-folate utilizing enzymes. This test, was conducted using the same [I]/[E]ratios as stated previously.

E. coli GAR TFase [3] = biological target: T1, E. coli GAR TFase; test: Fluorescence titration, dissociation constant for E. coli GAR TFase; assay type: binding
Experimental: The thermodynamic dissociation constant, KD, for the E.β-TGDDF complex was measured by following the enhancement of the inhibitor's 395 nm fluorescence (excitation at 275 nm) upon binding to GAR TFase. A concentrated E. coli GAR TFase solution was added to an 11 nM solution of purified β-TGDDF; for each addition, the fluorescence at three different wavelengths (396, 400, and 405 nm) was measured. Fluorescence titration data was analyzed by the method of Taira and Benkovic, J. Med. Chem., 31, 129-137 (1988).
as §2
(§3) The E. coli GAR TFase binding constants for the compounds of the present invention and other folate analogs are shown in Table I below: […]

[4] = substrate: Nc1nc(O)c2cc(CN(C=O)c3ccc(C(=O)N[C@@H](CCC(=O)O)C(=O)O)cc3)ccc2n1; test: E. coli GAR TFase inhibition/activity assay (5,8-dideazafolate absorbance at 295 nm); assay type: biochemical; conditions: other: Table I, 26.0 °C
Experimental: as §1, §2, §3

[5] = substrate: NCC(=O)N[C@@H]1O[C@H](COP(=O)(O)O)[C@@H](O)[C@H]1O; test: as above; assay type: biochemical; conditions: other: Table I, 26.0 °C
Experimental: as §1, §2, §3

Molecule: Nc1nc2c(c(=O)[nH]1)CC(CCc1ccc(C(=O)NC(CCC(=O)O)C(=O)O)cc1)CN2 (stereo not shown) [DDATHF]
- Anti-tumor activity (B-16 melanoma): anti-tumor,activity
- Anti-tumor activity (HL-60): anti-tumor,activity
- Anti-tumor activity (L1210 leukemia): anti-tumor,activity
- Activity against solid tumors (solid tumors): impressive activity
- Inhibition of GAR TFase (GAR TFase): indirectly shown to inhibit GAR TFase
- Anti-tumor activity (6C3HED lymphosarcoma): anti-tumor,activity
- Anti-tumor activity (X-5563): anti-tumor,activity
- Anti-tumor activity (P388 leukemia): anti-tumor,activity
- Effect on intracellular pools of ATP and GTP [1]: depletion of intracellular pools of ATP and GTP

Molecule: Nc1nc2ccc(CNc3ccc(C(=O)N[C@@H](CCC(=O)O)C(=O)O)cc3)cc2c(=O)[nH]1 [DDF, 5,8-dideazafolate, reference compound]
- Ki (E. coli GAR TFase [2]): 28.1 µM

Molecule: Nc1nc2ccc(CN(C(=O)CSCC(=O)NC3O[C@H](CO)[C@@H](O)[C@H]3O)c3ccc(C(=O)N[C@@H](CCC(=O)O)C(=O)O)cc3)cc2c(=O)[nH]1 (stereo partly drawn) [alpha,beta-dephospho-TGDDF]
- Ki (E. coli GAR TFase [2]; Table I, E. coli GAR TFase, read-out: KI): 1.7 µM

Molecule: Nc1nc2ccc(CN(C(=O)CSCC(=O)N[C@H]3O[C@H](COP(=O)(O)O)[C@@H](O)[C@H]3O)c3ccc(C(=O)N[C@@H](CCC(=O)O)C(=O)O)cc3)cc2c(=O)[nH]1 [alpha-TGDDF]
- binding affinity for GAR TFase (comparison of anomers) (E. coli GAR TFase [3]; alpha- versus beta-anomer): lower than the beta-anomer
- Kd (E. coli GAR TFase [3]; alpha-anomer, read-out: KD): 5.8 nM

Molecule: CN(Cc1cnc2nc(N)nc(N)c2n1)c1ccc(C(=O)N[C@@H](CCC(=O)O)C(=O)O)cc1 [methotrexate]
- Activity against solid tumors (solid tumors): minimal activity

B1: E. coli GAR TFase (Escherichia coli K-12) (protein)
chain: T1 sequence (P08179 1-212)
notes: made in house; host or cells: E. coli TX393 with multicopy plasmid pJS85, or E. coli TX635 with lambda pL plasmid pJS119 or pJS167
- Km [4]: 36 µM
- Km [5]: 20 µM
